One compound from paper PMC7180948, “New Insights into 4-Anilinoquinazolines as Inhibitors of Cardiac Troponin I–Interacting Kinase (TNNi3K)” (Molecules, 2020) can be followed below.

Test in all cases: biochemical
What all share (design): KINOMEscan competition binding panel (Eurofins DiscoverX), single concentration, % inhibition

Experiment [1] has as its target T1, JAK3(JH1domain-catalytic) (Homo sapiens, UniProt P52333).
T1 construct: JH1domain-catalytic
The following applies: read-out: 7 at 1 µM % inhibition. Here is the method:
(§1) KinomeScan® Assay on 7 and 15 was performed as previously described by EuroFins DiscoverX [24]. GSK114 (7) and 15 were submitted for a KINOMEscan® assay to explore the selectivity profile across >400 human kinases at a compound concentration of 1 µM. […] GSK114 (7) is a narrow-spectrum TNNi3K inhibitor but has some potent off-targets including GAK which has been previously reported for this chemotype. […] If utilized together this set of compounds could be useful to investigate TNNi3K biology.

In a further experiment the target is EGFR(E746-A750del) (Homo sapiens, UniProt P00533, DEL746-750). Conditions: read-out: 7 at 1 µM % inhibition. Here is the method:
as §1

The target in a further experiment is T2, AMPK-alpha1 (Homo sapiens, UniProt Q13131).
T2 construct: gene PRKAA1
The following applies: read-out: 7 at 1 µM % inhibition. Here is the method:
as §1

The target of the next experiment is NEK2 (Homo sapiens, UniProt P51955). Conditions: read-out: 7 at 1 µM % inhibition. Here is the method: as §1
Chain of NEK2 (P51955 whole entry): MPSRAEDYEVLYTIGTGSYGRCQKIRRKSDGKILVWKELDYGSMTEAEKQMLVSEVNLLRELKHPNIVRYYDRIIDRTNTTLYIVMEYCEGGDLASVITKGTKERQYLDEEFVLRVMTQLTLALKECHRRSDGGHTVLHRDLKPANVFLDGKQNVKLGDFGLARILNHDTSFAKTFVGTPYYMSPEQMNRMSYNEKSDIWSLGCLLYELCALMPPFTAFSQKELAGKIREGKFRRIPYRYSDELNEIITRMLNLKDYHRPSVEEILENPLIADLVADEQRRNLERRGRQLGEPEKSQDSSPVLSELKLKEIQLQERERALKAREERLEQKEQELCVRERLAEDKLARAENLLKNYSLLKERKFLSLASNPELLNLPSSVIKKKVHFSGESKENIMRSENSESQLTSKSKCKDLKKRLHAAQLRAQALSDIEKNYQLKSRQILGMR
Another experiment concerns the target T3, PFCDPK1(P.falciparum) (Plasmodium falciparum, UniProt P62344).
T3 construct: gene CDPK1
Conditions: read-out: 7 at 1 µM % inhibition (pathogen kinases). Here is the method: as §1

For another experiment, the target named is EGFR(G719C) (Homo sapiens, UniProt P00533, G719C). Conditions: read-out: 7 at 1 µM % inhibition. Here is the method:
as §1

In the next experiment the target is T4, NDR2 (Homo sapiens, UniProt Q9Y2H1).
T4 construct: gene STK38L
The following applies: read-out: 7 at 1 µM % inhibition. Here is the method:
as §1

The next experiment has as its target KIT(V559D) (Homo sapiens, UniProt P10721, V559D). Conditions: read-out: 7 at 1 µM % inhibition. Here is the method: as §1
Another experiment deals with GRK7 (Homo sapiens, UniProt Q8WTQ7). Conditions: read-out: 7 at 1 µM % inhibition. Here is the method: as §1
A further experiment concerns the target T5, PKAC-beta (Homo sapiens, UniProt P22694).
T5 construct: gene PRKACB
The following applies: read-out: 7 at 1 µM % inhibition. Here is the method:
as §1

In another experiment the target is PRKD1 (Homo sapiens, UniProt Q15139). The following applies: read-out: 7 at 1 µM % inhibition. Here is the method: as §1
For a further experiment, the target named is SIK2 (Homo sapiens, UniProt Q9H0K1). The following applies: read-out: 7 at 1 µM % inhibition. Here is the method: as §1
Another experiment addresses PRKG2 (Homo sapiens, UniProt Q13237). Conditions: read-out: 7 at 1 µM % inhibition. Here is the method:
as §1

The target in another experiment is WNK1 (Homo sapiens, UniProt Q9H4A3). Conditions: read-out: 7 at 1 µM % inhibition. Here is the method: as §1
The target of a further experiment is T6, TAK1 (Homo sapiens, UniProt O43318).
T6 construct: gene MAP3K7
The following applies: read-out: 7 at 1 µM % inhibition. Here is the method:
as §1

The target of a further experiment is CSF1R (Homo sapiens, UniProt P07333). The following applies: read-out: 7 at 1 µM % inhibition. Here is the method: as §1
The target in the next experiment is EPHB3 (Homo sapiens, UniProt P54753). The following applies: read-out: 7 at 1 µM % inhibition. Here is the method: as §1
Chain of EPHB3 (P54753 whole entry): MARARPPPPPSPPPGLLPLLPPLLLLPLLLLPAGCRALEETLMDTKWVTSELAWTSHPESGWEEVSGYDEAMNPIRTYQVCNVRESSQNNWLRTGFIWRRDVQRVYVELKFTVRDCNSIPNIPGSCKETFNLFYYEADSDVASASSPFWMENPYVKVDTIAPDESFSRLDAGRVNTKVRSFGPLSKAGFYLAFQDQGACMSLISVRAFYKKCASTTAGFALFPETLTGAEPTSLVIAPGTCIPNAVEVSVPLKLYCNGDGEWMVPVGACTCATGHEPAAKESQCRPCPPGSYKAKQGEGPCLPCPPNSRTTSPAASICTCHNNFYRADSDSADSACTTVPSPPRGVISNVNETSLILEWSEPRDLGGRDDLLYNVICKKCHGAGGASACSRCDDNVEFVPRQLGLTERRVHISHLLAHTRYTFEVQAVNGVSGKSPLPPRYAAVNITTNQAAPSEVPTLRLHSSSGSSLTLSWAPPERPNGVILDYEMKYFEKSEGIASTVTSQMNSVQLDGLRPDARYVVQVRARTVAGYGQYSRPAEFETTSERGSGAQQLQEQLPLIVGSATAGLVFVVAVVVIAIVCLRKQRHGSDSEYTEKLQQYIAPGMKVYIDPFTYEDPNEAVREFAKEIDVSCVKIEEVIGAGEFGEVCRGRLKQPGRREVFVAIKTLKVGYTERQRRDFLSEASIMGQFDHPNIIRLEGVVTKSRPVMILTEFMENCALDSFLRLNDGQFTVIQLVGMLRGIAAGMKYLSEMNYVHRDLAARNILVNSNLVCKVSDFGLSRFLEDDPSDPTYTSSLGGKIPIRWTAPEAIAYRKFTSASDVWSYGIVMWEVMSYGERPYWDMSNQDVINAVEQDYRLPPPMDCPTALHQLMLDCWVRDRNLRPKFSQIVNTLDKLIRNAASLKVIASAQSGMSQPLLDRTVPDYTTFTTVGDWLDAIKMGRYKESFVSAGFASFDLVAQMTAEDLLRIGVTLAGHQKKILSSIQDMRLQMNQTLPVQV
Experiment [2] deals with T7, RSK4(Kin.Dom.1-N-terminal) (Homo sapiens, UniProt Q9UK32).
T7 construct: gene RPS6KA6; Kin.Dom.1-N-terminal
T7 sequence (Q9UK32 whole entry): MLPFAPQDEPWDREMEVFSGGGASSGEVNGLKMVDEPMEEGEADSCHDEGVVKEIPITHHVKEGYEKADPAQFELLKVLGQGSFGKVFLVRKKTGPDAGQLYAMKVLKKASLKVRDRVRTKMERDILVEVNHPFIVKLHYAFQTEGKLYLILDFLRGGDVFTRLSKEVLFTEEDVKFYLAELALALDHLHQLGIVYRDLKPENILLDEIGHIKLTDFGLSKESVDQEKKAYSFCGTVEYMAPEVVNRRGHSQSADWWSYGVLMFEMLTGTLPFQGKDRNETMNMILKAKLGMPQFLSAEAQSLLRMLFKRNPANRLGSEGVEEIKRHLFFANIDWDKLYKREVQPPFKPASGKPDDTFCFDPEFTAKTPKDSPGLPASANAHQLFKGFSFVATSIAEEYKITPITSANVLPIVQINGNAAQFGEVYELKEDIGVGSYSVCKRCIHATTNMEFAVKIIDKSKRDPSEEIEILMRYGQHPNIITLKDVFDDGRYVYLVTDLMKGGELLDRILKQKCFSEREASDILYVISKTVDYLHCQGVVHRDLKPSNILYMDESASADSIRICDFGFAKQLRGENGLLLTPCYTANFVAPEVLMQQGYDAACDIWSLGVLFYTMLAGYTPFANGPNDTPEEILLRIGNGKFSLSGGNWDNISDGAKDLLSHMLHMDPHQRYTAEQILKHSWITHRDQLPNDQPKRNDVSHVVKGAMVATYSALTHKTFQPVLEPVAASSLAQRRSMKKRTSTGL
The following applies: read-out: 7 at 1 µM % inhibition. Here is the method:
as §1

A further experiment concerns the target MYLK (Homo sapiens, UniProt Q15746). The following applies: read-out: 7 at 1 µM % inhibition. Here is the method:
as §1

Another experiment deals with T8, LZK (Homo sapiens, UniProt O43283).
T8 construct: gene MAP3K13
T8 sequence (O43283 whole entry): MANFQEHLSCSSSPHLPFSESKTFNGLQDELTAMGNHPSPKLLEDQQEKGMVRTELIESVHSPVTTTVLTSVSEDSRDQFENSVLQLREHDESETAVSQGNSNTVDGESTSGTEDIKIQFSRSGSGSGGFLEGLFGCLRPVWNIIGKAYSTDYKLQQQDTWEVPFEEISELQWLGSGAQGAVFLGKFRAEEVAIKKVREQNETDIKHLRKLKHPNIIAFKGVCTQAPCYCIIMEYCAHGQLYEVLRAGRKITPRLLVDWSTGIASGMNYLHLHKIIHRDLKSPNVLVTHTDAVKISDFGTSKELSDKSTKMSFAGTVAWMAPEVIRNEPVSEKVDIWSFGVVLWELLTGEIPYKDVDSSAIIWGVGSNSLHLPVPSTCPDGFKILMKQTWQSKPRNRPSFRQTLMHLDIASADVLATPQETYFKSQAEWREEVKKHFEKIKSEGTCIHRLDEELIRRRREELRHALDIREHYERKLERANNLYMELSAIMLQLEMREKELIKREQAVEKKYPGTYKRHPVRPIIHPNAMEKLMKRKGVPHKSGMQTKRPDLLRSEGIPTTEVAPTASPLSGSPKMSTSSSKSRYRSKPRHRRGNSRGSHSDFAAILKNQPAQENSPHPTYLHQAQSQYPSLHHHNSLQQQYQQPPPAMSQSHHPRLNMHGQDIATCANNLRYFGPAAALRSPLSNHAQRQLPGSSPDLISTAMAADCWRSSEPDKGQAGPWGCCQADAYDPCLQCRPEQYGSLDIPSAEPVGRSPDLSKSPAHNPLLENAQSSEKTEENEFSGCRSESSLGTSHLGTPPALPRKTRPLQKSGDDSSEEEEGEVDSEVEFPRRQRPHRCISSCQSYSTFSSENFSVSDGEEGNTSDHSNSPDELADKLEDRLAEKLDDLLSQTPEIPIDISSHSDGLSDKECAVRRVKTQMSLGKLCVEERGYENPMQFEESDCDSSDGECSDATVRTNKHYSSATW
The following applies: read-out: 7 at 1 µM % inhibition. Here is the method:
as §1

The next experiment deals with RIPK4 (Homo sapiens, UniProt P57078). The following applies: read-out: 7 at 1 µM % inhibition. Here is the method:
as §1

Experiment [3] concerns the target T9, TYK2(JH1domain-catalytic) (Homo sapiens, UniProt P29597).
T9 construct: JH1domain-catalytic
The following applies: read-out: 7 at 1 µM % inhibition. Here is the method: as §1

In another experiment the target is EPHA7 (Homo sapiens, UniProt Q15375). Conditions: read-out: 7 at 1 µM % inhibition. Here is the method:
as §1

Chain of MYLK (Q15746 whole entry): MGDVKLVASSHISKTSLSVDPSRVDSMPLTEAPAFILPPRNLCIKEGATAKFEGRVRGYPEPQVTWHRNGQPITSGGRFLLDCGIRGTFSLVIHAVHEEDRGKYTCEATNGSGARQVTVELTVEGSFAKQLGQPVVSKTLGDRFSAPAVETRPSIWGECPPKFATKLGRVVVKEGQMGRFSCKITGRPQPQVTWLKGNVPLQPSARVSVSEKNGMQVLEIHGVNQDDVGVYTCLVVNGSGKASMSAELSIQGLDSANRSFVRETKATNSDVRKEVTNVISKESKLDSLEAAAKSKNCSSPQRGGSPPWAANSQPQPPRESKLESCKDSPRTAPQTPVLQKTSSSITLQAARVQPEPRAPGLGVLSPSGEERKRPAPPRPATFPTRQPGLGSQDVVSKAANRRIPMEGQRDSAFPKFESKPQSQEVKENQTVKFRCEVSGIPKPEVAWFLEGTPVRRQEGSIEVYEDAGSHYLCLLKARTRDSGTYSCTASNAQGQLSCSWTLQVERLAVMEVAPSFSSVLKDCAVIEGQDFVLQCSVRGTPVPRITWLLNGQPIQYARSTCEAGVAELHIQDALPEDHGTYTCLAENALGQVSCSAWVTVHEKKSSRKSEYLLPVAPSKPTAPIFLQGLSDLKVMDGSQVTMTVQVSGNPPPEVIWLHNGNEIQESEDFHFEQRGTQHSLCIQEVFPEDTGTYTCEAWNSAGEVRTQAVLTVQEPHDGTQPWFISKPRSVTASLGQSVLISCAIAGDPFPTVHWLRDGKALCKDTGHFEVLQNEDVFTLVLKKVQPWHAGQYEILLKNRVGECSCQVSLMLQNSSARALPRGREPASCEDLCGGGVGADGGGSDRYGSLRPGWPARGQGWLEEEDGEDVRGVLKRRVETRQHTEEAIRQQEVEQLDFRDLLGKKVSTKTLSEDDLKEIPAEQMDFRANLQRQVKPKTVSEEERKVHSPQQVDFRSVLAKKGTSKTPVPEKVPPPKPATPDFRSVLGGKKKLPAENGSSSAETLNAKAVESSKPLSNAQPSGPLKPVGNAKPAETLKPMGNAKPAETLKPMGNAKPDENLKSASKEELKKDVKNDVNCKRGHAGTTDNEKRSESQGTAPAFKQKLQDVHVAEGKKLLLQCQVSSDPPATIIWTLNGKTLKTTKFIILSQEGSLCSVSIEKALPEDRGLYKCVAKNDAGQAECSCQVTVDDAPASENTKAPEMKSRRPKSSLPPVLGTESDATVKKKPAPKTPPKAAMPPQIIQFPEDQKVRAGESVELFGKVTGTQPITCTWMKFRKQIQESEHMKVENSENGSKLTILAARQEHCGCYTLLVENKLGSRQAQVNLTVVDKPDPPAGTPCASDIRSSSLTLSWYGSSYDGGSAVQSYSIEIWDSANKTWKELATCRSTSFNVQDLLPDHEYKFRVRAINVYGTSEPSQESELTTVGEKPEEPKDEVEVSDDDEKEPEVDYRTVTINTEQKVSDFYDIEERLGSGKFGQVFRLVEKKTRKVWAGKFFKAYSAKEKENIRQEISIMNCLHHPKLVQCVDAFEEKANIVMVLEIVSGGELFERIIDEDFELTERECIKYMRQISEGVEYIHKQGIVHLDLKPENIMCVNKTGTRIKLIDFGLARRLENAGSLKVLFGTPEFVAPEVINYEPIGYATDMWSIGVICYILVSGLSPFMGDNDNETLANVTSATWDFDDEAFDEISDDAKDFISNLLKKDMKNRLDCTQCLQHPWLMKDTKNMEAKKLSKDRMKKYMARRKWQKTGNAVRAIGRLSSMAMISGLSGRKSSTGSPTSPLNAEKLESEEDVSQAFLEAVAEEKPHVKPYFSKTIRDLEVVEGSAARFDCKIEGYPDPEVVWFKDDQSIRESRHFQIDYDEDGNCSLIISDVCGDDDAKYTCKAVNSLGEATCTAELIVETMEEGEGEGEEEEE

The term inhibition denotes the relative decrease from the control value, in per cent. With `CNS(=O)(=O)c1ccc(N(C)C)c(Nc2ncnc3cc(OC)c(OC)cc23)c1` [compound 7, 3-((6,7-dimethoxyquinazolin-4-yl)amino)-4-(dimethylamino)-N-methylbenzenesulfonamide], the inhibition at 1 µM was 17% in experiment [1]; 25% at EGFR(E746-A750del); 0% at AMPK-alpha1; 2% on NEK2; 96.3% at PFCDPK1(P.falciparum); 0% on EGFR(G719C). Besides, the inhibition at 1 µM was 9% at NDR2; 28% on KIT(V559D); 23% at GRK7; 0% on PKAC-beta; 20% on PRKD1; 69% at SIK2. In addition, the inhibition at 1 µM at PRKG2 was 14%; at WNK1, 62%; on TAK1 it was 51%; at CSF1R it was 22%; on EPHB3, 0%; in experiment [2] it was 34%. Also, the inhibition at 1 µM was 9% at MYLK; 23% on LZK; 0% on RIPK4; 0% in experiment [3]; 0% on EPHA7.
